{
  "source": "patent EP4140481A1",
  "about": "“PROTEIN-OLIGOMER BINDING AGENTS AND THERAPEUTIC USES THEREOF” (Galyan Bio, Inc., priority 2021, dated 2023)",
  "key": {"Htt Exon-1 Q16": {"target": "Htt Exon-1 Q16 (Homo sapiens, UniProt P42858, DEL34-38)", "sequence (P42858 with tags, fused parts or gaps DEL34-38)": "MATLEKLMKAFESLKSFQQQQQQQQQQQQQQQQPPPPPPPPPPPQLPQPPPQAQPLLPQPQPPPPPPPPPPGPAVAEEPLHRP", "assay": "Dynamic Light Scattering (DLS), induced aggregation", "format": "biochemical", "description": "(§1) Proteins were ultracentrifuged with 50,000 rpm (rounds per minute) for one hour at 2 °C. The supernatant was used for DLS measurements. DLS measurements were conducted with Malvern Zetasizer Nano (Malvern Panalytical Ltd, United Kingdom).\n(§2) Futher experiments were made with Htt Exon-1 Q16 and Q46. Table 28 Size Distribution (Volume and Number) of Q16 under various conditions"}, "Htt Exon-1 Q46": {"target": "T1, Htt Exon-1 Q46 (Homo sapiens, UniProt P42858, INS38QQQQQQQQQQQQQQQQQQQQQQQQQ)", "T1 construct": "Futher experiments were made with Htt Exon-1 Q16 and Q46", "T1 sequence (P42858 with tags, fused parts or gaps with the stated changes)": "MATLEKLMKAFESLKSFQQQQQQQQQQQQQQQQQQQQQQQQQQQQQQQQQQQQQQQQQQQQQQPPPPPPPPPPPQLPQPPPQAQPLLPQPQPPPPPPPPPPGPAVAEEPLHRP", "assay": "Dynamic Light Scattering (DLS), induced aggregation", "format": "biochemical", "description": "as §1, §2"}, "R6/2 mice": {"test_system": "R6/2 mice", "assay": "Rotarod in R6/2 mice of Huntington's disease", "format": "in vivo", "settings": "for rotarod performance: 33 mg/kg i.p. QD", "description": "Methods ― Total of 20 female and male R6/2 mice and 10 female and male wild-type littermate control mice (WT) were used in the study. The mice were genotyped and the R6/2 mice were divided into different treatment groups based on their litter and baseline body weight. The treatment with Vehicle or Compound 22 (33 mg/kg; 5 ml/kg, i.p. QD) was started at 4 weeks of age after the baseline behavioral tests (Figure 6). Body weights were measured at 3 weeks of age and twice a week until the end of the study.\nThe experimental groups were: • Group 1) 10 wild-type mice (mixed gender) treated with Vehicle (5 ml/kg, i.p., QD) starting at 4 weeks of age • Group 2) 10 R6/2 mice (mixed gender) treated with Vehicle (5 ml/kg, i.p., QD) starting at 4 weeks of age • Group 3) 10 R6/2 mice (mixed gender) treated with Compound 22 (33 mg/kg; 5 ml/kg, i.p. QD) starting at 4 weeks of age\nCompound Delivery and Dosing - Treatment with Compound 22 (33 mg/kg; 5 ml/kg, i.p. QD) or Vehicle was started at age week 4 and continued until the 12 weeks of age. The test articles were handled and stored and the dose formulations were prepared according to detailed instructions provided by the Sponsor.\nRotarod - The Rotarod test was perfomed at 4 (pre-treatment baseline), 6, 8 and 10 weeks of age. Each testing day included a training trial of 5 min at 4 RPM on the Rotarod apparatus (AccuScan Instruments, Columbus, USA). 30 minutes later, the animals were tested for 3 consecutive accelerating trials of 6 min with the speed changing from 0 to 40 RPM over 360 seconds and with an inter-trial interval of at least 30 min. The latency to fall from the rod was recorded. Mice remaining on the rod for more than 360 s were removed and their time scored as 360 sec.\n[…] littermate control mice (F1 generation) were bred by Charles River Laboratories, Sulzfeld, Germany by mating (F0 generation) WT males (C57BL/6J; systematically re-infused with pedigreed JAX mice, stock 000664) with ovarian transferred (OT) TG females (JAX, stock 006494). After weaning mice were sent from Germany to Charles River, Kuopio, Finland at an age of 3 weeks. Following genotyping and acclimation, the mice were enrolled in the study."}, "mHTT": {"test_system": "mHTT", "assay": "Immunohistochemistry of nuclear diffuse mHTT in brain tissue from the R6/2 study", "format": "in vivo, R6/2 mice", "settings": "33 mg/kg i.p. QD; treated animals n= 9 versus vehicle treated TG mice; p = 0.01", "description": "Preparation of Immunohistology slides - Brain tissue collected within the animal study was prepared for IHC studies by Charles River staff. The brains were fixed by immersion in 4% paraformaldehyde for at least 24 h after which brain samples were cryoprotected by 30% sucrose solution for 72 h. Finally, the brain samples were flash-frozen in liquid nitrogen and stored at -80 °C. The brain samples were cut using a microtome cryostat system, producing coronal brain tissue sections of 40 µm thickness. Those were mounted on individual adhesive-coated microscope glass slides with frosted ends.\nStaining - Goat anti-Rabbit IgG (H+L) Alexa Fluor 647 (1:500, ThermoFisher Invitrogen) was used as a secondary antibody for binding to CBP antibody. […]\nThe blocking buffer was freshly prepared and consisted of PBS (Sigma-Aldrich) with 5% normal goat serum (NGS), 0.2% BSA, 0.2% lysine and 0.2% glycine. […] On day six, samples were washed and then incubated with DAPI containing mounting medium Fluoroshield (Sigma-Aldrich), in order to counterstain the nuclei and preserve the fluorescence. […]\nResults - Figures 23A-23F show the distinction of inclusion bodies (IB) and diffuse species of mHTT by confocal fluorescence imaging. […] Consequently, this distinction of diffuse mHTT and IBs was implemented in the analysis macro to quantify the different species of mHTT within striatum and cortex of R6/2 mice. […]"}, "[1]": {"settings": "by number, equimolar Compound 4"}, "[2]": {"settings": "by volume, equimolar Compound 4"}, "[3]": {"settings": "by intensity, equimolar Compound 4"}},
  "note": "Several values for one entry are separate records, joined by “and”; a condition that tells them apart may be missing. Equal values may be shown once.",
  "data": [
    {"smiles": "CCc1c(C)[nH]c2ccc(C(=O)NCCN(CC)CC)cc12", "note": "[Compound 4, N-(2-(diethylamino)ethyl)-3-ethyl-2-methyl-1H-indole-5-carboxamide]", "values": [
      {"measurement": "% Number, Peak 1", "setting": "Htt Exon-1 Q16; [1]", "value": 100, "unit": "%"},
      {"measurement": "Size, Peak 1", "setting": "Htt Exon-1 Q16; [1]", "value": "6.0 nm and 6.063 nm"},
      {"measurement": "% Volume, Peak 1", "setting": "Htt Exon-1 Q16; [2]", "value": 0.2, "unit": "%"},
      {"measurement": "% Volume, Peak 2", "setting": "Htt Exon-1 Q16; [2]", "value": 99.8, "unit": "%"},
      {"measurement": "Size, Peak 1", "setting": "Htt Exon-1 Q16; [2]", "value": 93.12, "unit": "nm"},
      {"measurement": "Size, Peak 2", "setting": "Htt Exon-1 Q16; [2]", "value": 6.949, "unit": "nm"},
      {"measurement": "assembly state of Q16", "setting": "Htt Exon-1 Q16; exposed to Compound 4", "value": "mainly monomeric"},
      {"measurement": "% Intensity, Peak 1", "setting": "Htt Exon-1 Q46; [3]", "value": 83.1, "unit": "%"},
      {"measurement": "% Intensity, Peak 2", "setting": "Htt Exon-1 Q46; [3]", "value": 12.9, "unit": "%"},
      {"measurement": "% Intensity, Peak 3", "setting": "Htt Exon-1 Q46; [3]", "value": "4,1%"},
      {"measurement": "Size, Peak 1", "setting": "Htt Exon-1 Q46; [3]", "value": 178.7, "unit": "nm"},
      {"measurement": "Size, Peak 2", "setting": "Htt Exon-1 Q46; [3]", "value": 9.275, "unit": "nm"},
      {"measurement": "Size, Peak 3", "setting": "Htt Exon-1 Q46; [3]", "value": 3917, "unit": "nm"},
      {"measurement": "assembly state of Q46", "setting": "Htt Exon-1 Q46; exposed to Compound 4", "value": "assembles as mostly aggregates and larger aggregates"}
    ]},
    {"smiles": "Cc1[nH]c2ccc(C(=O)NCCN(C(C)C)C(C)C)cc2c1C", "note": "[Compound 22]", "values": [
      {"measurement": "rotarod performance", "setting": "R6/2 mice; female R6/2 mice at 10 weeks of age, normalized to 4-week baseline, versus vehicle", "value": "significantly improved"},
      {"measurement": "rotarod performance", "setting": "R6/2 mice; pooled genders or males, versus vehicle treated R6/2 mice", "value": "no significant differences"},
      {"measurement": "mean latency to fall", "setting": "R6/2 mice; 33 mg/kg intraperitoneal once daily, female R6/2 mice at 10 weeks of age (vehicle 55.7 s)", "value": 108.3, "unit": "s"},
      {"measurement": "improvement of latency to fall", "setting": "R6/2 mice; in comparison to untreated model mice, 10 weeks of age", "value": 94, "unit": "%"},
      {"measurement": "Nuclear diffuse mHTT reduction in the cortex", "setting": "mHTT", "value": 40, "unit": "%"}
    ]}
  ]
}
